From publication PMC8966651, “PKPD Modeling of the Inoculum Effect of Acinetobacter baumannii on Polymyxin B in vivo” (Frontiers in Pharmacology, 2022)
Counter-ions that a name gives are not always drawn. Like-named read-outs stand apart in the source and are kept apart here. Bridge positions count the residues as written; N and C are the ends. Square brackets hold non-standard residues; d marks the D form. Peptide text beside a SMILES is read from it. * marks the point of attachment. X1 = CC[C@H](C)CCCCC(=O)*; Dab = NCC[C@H](N)C(=O)O

How the values were obtained:
[1] = PMB plasma protein binding by ultrafiltration (Centrifree) of plasma from infected mice; assay type: in vitro ADME; conditions: mouse plasma
Method: (§1) The PK of PMB was determined in neutropenic mice infected with the bacterial inoculum size of 10^6 CFU/thigh (n = 56). Mice were anesthetized by isoflurane (AbbVie, Rungis, France) inhalation (3%) for 5 min at each sampling time. Blood samples were collected by intracardiac puncture into heparinized tubes up to 24 h after PMB administration for a total of 7 time points per dose level (n = 3 animals per time point). Plasma was separated from the whole blood after centrifugation at 4,000 rpm for 10 min at 4°C and divided into two samples. The first sample was used to determine total PMB concentrations and the second one (0.15 ml) was ultrafiltered (4000 rpm for 30 min at room temperature) using Centrifree® ultrafiltration devices from Millipore (Merck KGaA) to determine unbound PMB concentrations and consequently protein binding. The non-specific binding of PMB to the membrane of the Centrifree® ultrafiltration devices ([Sader et al., 2012]) was determined by ultrafiltration of PMB solutions in phosphate buffer (pH7.2) at concentrations ranging from 0.2 to 7.5 mg/L and was used to correct ultrafiltrate concentrations. Plasma samples and ultrafiltrates were stored at −20°C until further analysis. Total and unbound PMB concentrations were determined by a liquid chromatography tandem mass spectrometry (LS-MS/MS) method (Supplemental Material).
A saturable non-specific binding (NSB) of PMB to the ultrafiltration membrane, translating to a non-linear decrease of PMB NSB when PMB concentration increased, was observed (Supplementary Figure S1) and could be described by the following equation: NSB = 0.47−0.16×ln(UF) (3) Where NSB corresponds to the non-specific binding (%) and UF to PMB concentrations in ultrafiltrates (mg/L). Equation 3 was used to correct ultrafiltrates concentrations, as follows: Unbound concentrations = UF/1−NSB (4)

[2] = tested on: A. baumannii (CS01); assay: Neutropenic mouse thigh infection model, bacterial counts after PMB; assay type: in vivo, Acinetobacter baumannii
Method: A clinical strain of A. baumannii (CS01), isolated from a patient with a meningitis (Seville, Spain) before treatment with CST, was used during this study ([López-Rojas et al., 2013]). Before each experiment, the strain was cultured in 5 ml of cation adjusted Muller-Hinton broth II (MHB) (Biomérieux, Marcy-l’Etoile, France) and incubated overnight at 37 ± 2°C with constant shaking (150–170 rpm). This overnight suspension was diluted 1:50 in MHB and was incubated with constant shaking at 35°C during 2 h until an OD600nm of 0.26 was achieved (Ultrospec10, Biochrom Ltd., Cambridge, United Kingdom), corresponding to a bacterial count of 10^8 CFU/ml in exponential growth phase. The bacterial suspension was centrifuged (3,000 rpm, 6 min), broth was removed and replaced by the same volume of sterile saline solution. This suspension was then diluted to obtain inocula of 10^7 and 10^6 CFU/ml. Samples of the inoculation solutions were serially diluted on saline, plated on Muller-Hinton agar plates (Biomérieux, Marcy-l’Etoile, France) and incubated overnight at 37°C.
(§2) Animal experiments were carried out according to the EC Directive 2010/63/EU. They were approved by the local ethics committee (COMETHEA) and registered by the French Ministry of Higher Education and Research (approval numbers: 2019022216097190 and 2017072415099072). Five-week-old male Swiss RjOrl mice (n = 296) weighing 34 ± 2 g (mean ± standard deviation [SD]) were obtained from Janvier Labs (Saint-Berthevin, France). All animals were acclimatized in ventilated racks in a temperature-regulated environment with a 12 h light-dark cycle, with free access to food and water for a minimum of 5 days before the beginning of the experiment. Neutropenia was induced by intraperitoneal administrations of cyclophosphamide at 150 and 100 mg/kg, 4 days and 1 day prior to experimental infection, respectively ([Landersdorfer et al., 2018]). Thigh infection was induced by intramuscular administration of 0.1 ml of a bacterial suspension of 10^6, 10^7 or 10^8 CFU/ml (corresponding to 10^5, 10^6 and 10^7 CFU/thigh, respectively), into one of the posterior thigh muscles. Thus, three groups of mice were distinguished according to the inoculum injected (n = 76, 146 and 74 for 10^5, 10^6 and 10^7 CFU/thigh, respectively) Each group was divided into two subgroups: treated (n = 48, 116 and 45 for 10^5, 10^6 and 10^7 CFU/thigh, respectively) and control mice (n = 28, 30 and 29 for 10^5, 10^6 and 10^7 CFU/thigh, respectively).
(§3) Two hours after bacterial inoculation, mice received either a single subcutaneous administration of PMB (1, 15 or 40 mg/kg for mice infected with 10^6 and 10^7 CFU/thigh, and 15 or 40 mg/kg for mice infected with 10^5 CFU/thigh), or a subcutaneous administration of saline solution (control group).
Mice (n = 240) were sacrificed at 6 different time points: just prior to the start of the therapy (0 h) and at 2, 4, 6, 8 and 24 h after PMB administration. A total of 3-6 mice were sacrificed at each time point. Thigh muscles were collected and homogenized with 1 ml of sterile saline solution using potters Elvehjem-type tissue grinders (Thermo Fischer Scientific, Illkirch-Graffenstaden, France). Homogenates were serially diluted in saline, plated on Muller-Hinton agar plates and incubated overnight at 37°C. Bacterial colonies were counted and expressed as log10 numbers of CFU/thigh. The lower limit of quantification (LOQ) was set to 800 CFU/ml corresponding to 2.9 log10 CFU/thigh.

[3] = PMB pharmacokinetics after a single subcutaneous dose in neutropenic thigh-infected mice (two-compartment model); assay type: in vivo; conditions: for Tmax: neutropenic mice infected with 10^6 CFU/thigh, n = 3 per time point, read-out: time to peak (Tmax)
Method: as §2, §3, §1
A PKPD model was developed in two steps to quantify the exposure-effect relationship of PMB in infected mice. First, time courses of total and unbound PMB concentrations were modeled and then, PK parameters were fixed during development of the PD part of the PKPD model.
Different structural models including one, two or three compartments, linear, nonlinear (Michaelis-Menten) or parallel linear/nonlinear elimination were evaluated to describe PK data. Models with linear and nonlinear absorption were also tested. Additive, proportional and exponential residual error models were explored.
Model selection was based on objective function value (OFV) and goodness of fit (GOF) plots. When two models were nested, a decrease in OFV of at least 3.84 (chi square 1df p = 0.05) was needed to select the most complex model. […]

[4] = final PK model, estimate (%RSE)

`CC[C@H](C)CCCCC(=O)N[C@@H](CCN)C(=O)N[C@H](C(=O)N[C@@H](CCN)C(=O)N[C@H]1CCNC(=O)[C@H]([C@@H](C)O)NC(=O)[C@H](CCN)NC(=O)[C@H](CCN)NC(=O)[C@H](CC(C)C)NC(=O)[C@@H](Cc2ccccc2)NC(=O)[C@H](CCN)NC1=O)[C@@H](C)O` [PMB, Polymyxin B sulfate] (X1-[Dab]T[Dab][Dab][Dab][dF]L[Dab][Dab]T; lactam 4-C) showed a fraction unbound ([1]; male, Swiss RjOrl, sc, infected mice, ultrafiltration 4000 rpm 30 min room temperature, corrected for non-specific binding to membrane, LC-MS/MS, model estimate (%RSE)) of 0.166, an unbound fraction ([1]; infected mice, ultrafiltration corrected for non-specific binding, model estimate) of 17% and a plasma protein binding ([1]; ultrafiltration, this study) of about 80%. For the same compound, the “efficacy of PMB” value ([2]; 15 mg/kg SC, two highest inocula (10^6 and 10^7 CFU/thigh)) was “moderate efficacy”, the bacterial load reduction ([2]; 24 h after 15 mg/kg PMB SC, inoculum 10^5 CFU/thigh) was 2.6 ± 1.2 log10 CFU/thigh and the bacterial load reduction ([2]; 24 h after 40 mg/kg PMB SC, inoculum 10^5 CFU/thigh) was 2.5 ± 2.3 log10 CFU/thigh. The bacterial load reduction ([2]; 24 h after 40 mg/kg PMB SC, inoculum 10^6 CFU/thigh) was 3.5 ± 0.9 log10 CFU/thigh, the bacterial load reduction ([2]; 24 h after 40 mg/kg PMB SC, inoculum 10^7 CFU/thigh) was 2.1 ± 1.4 log10 CFU/thigh and the “bacterial counts compared with control group” value ([2]; PMB 1 mg/kg single SC dose, data not shown) was “no differences in bacterial counts with the control group”. For the same compound, the “increase of total Cmax when dose increased from 1 to 40 mg/kg” value ([3]; SC, plasma, infected mice) was 15 fold, the Maximum absorption rate ([3]; final PK model, saturable SC absorption, estimate (%RSE), doses 1, 15, 40 mg/kg) was 14.7 (10.3) mg/h/kg and the “Amount in the subcutaneous compartment that produces 50% of the maximum absorption rate” value [3, 4] was 2.24 (41.4) mg/kg. The “Distribution volume of the central compartment” value [3, 4] was 0.740 (16.7) L/kg, the “Distribution volume of the peripheral compartment” value [3, 4] was 0.743 (16.4) L/kg and the Intercompartmental clearance [3, 4] was 0.315 (27.3) L/h/kg. For the same compound, the Cmax ([3]; male, Swiss RjOrl, mouse, plasma, sc, 1 mg/kg, plasma, single SC dose 1 mg/kg, mean ± SD, infected mice 10^6 CFU/thigh, LC-MS/MS, SD, read-out: Total PMB peak concentration (Cmax)) was 920 ± 140 ng/mL, the Cmax ([3]; male, Swiss RjOrl, mouse, plasma, sc, 40 mg/kg, plasma, single SC dose 40 mg/kg, mean ± SD, infected mice 10^6 CFU/thigh, LC-MS/MS, SD, read-out: Total PMB peak concentration (Cmax)) was 13800 ± 810 ng/mL and the Cmax ([3]; male, Swiss RjOrl, mouse, plasma, sc, 40 mg/kg, this study, SC, highest dose 40 mg/kg, read-out: peak concentrations at the highest dose) was 15000 ng/mL. It also gave a CL/F ([3]; male, Swiss RjOrl, mouse, plasma, sc, final PK model, linear elimination, estimate (%RSE), read-out: Clearance (converted)) of 7.28 mL/min/kg, a Tmax ([3]; male, Swiss RjOrl, mouse, plasma, single SC dose 1 mg/kg, LC-MS/MS) of 0.5 h and a Tmax ([3]; male, Swiss RjOrl, mouse, plasma, single SC dose 40 mg/kg, LC-MS/MS) of 2 h.
